The values that follow come from ChEMBL document CHEMBL4339205, “Design, synthesis, and biological evaluation of novel pyrrolo[1,2-a]pyrazine derivatives” (Bioorg Med Chem Lett, 2019).

Activity calls are given as the source filed them. No cut-off for these calls is given here.

For experiment [1], the system named is U-937. Description: Cytotoxicity against human U937 cells assessed as reduction in cell viability at 10 uM measured after 3 days by CCK8 assay. The class given is functional, cell-based. (Tetrazolium dyes change colour on reduction, which living cells bring about.)
For experiment [2], the system named is U-937. Description: Cytotoxicity against human U937 cells assessed as reduction in cell viability measured after 3 days by CCK8 assay. The format is functional, cell-based. The settings on record: U-937, 72 h.
For experiment [3], the system named is U-937. In words: Induction of apoptosis in human U937 cells assessed as live cells at 0.3 uM measured after 2 days by muse Annexin V/dead cell reagent staining-based flow cytometry (reference value: 95.05 %). The format is functional. For orientation: A flow cytometer gives signals particle by particle.
In experiment [4] the test system is U-937. In words: Induction of apoptosis in human U937 cells assessed as necrotic cells at 0.3 uM measured after 2 days by muse Annexin V/dead cell reagent staining-based flow cytometry (reference value: 2.5 %). The format is functional.
Experiment [5] deals with U-937. In words: Induction of apoptosis in human U937 cells assessed as increase in caspase-3/7 activity up to 1 uM after 24 hrs. The class given is functional, cell-based.
A further experiment relates to CCD-18Co. In words: Cytotoxicity against human CCD-18Co cells assessed as reduction in cell viability measured after 3 days by CCK8 assay. The class given is cell-based. Conditions: 72 h.
Experiment [6] has as its system U-937. In words: Induction of apoptosis in human U937 cells assessed as late apoptotic cells at 0.3 uM measured after 1 day by muse Annexin V/dead cell reagent staining-based flow cytometry (reference value: 1.75 %). The class given is functional.
For experiment [7], the target named is T1, Protein farnesyltransferase (Homo sapiens) (UniProt P49354+P49356). In words: Inhibition of FTase (unknown origin). The format is protein-complex assay.
Experiment [8] relates to U-937. In words: Induction of apoptosis in human U937 cells assessed as early apoptotic cells at 0.3 uM measured after 3 days by muse Annexin V/dead cell reagent staining-based flow cytometry (reference value: 0.7 %). The class given is functional.
The target in experiment [9] is c-Jun N-terminal kinase, JNK (Homo sapiens) (UniProt P45983+P53779+P45984). In words: Inhibition of JNK phosphorylation in human U937 cells at 0.3 uM measured after 1 to 3 hrs y Western blot analysis. The format is cell-based.
For experiment [10], the target named is T1, Protein farnesyltransferase (Homo sapiens). Description: Inhibition of FTase in human U937 cells assessed as reduction in p38 MAPK phosphorylation at 0.3 uM measured after 1 to 3 hrs y Western blot analysis. The class given is cell-based. On the technique in general: A western blot detects proteins with antibodies after separation by electrophoresis.

Experiment [11] relates to U-937. In words: Induction of apoptosis in human U937 cells assessed as late apoptotic cells at 0.3 uM measured after 2 days by muse Annexin V/dead cell reagent staining-based flow cytometry (reference value: 1.75 %). The class given is functional.
For experiment [12], the system named is U-937. Description: Induction of apoptosis in human U937 cells assessed as necrotic cells at 0.3 uM measured after 1 day by muse Annexin V/dead cell reagent staining-based flow cytometry (reference value: 2.5 %). The format is functional.
Experiment [13] concerns U-937. Description: Induction of apoptosis in human U937 cells assessed as live cells at 0.3 uM measured after 3 days by muse Annexin V/dead cell reagent staining-based flow cytometry (reference value: 95.05 %). The format is functional.
Experiment [14] concerns U-937. Description: Induction of apoptosis in human U937 cells assessed as live cells at 0.3 uM measured after 1 day by muse Annexin V/dead cell reagent staining-based flow cytometry (reference value: 95.05 %). The format is functional.
Experiment [15] has as its system U-937. Description: Induction of apoptosis in human U937 cells assessed as early apoptotic cells at 0.3 uM measured after 2 days by muse Annexin V/dead cell reagent staining-based flow cytometry (reference value: 0.7 %). The class given is functional.
The test system of experiment [16] is U-937. Description: Induction of apoptosis in human U937 cells assessed as early apoptotic cells at 0.3 uM measured after 1 day by muse Annexin V/dead cell reagent staining-based flow cytometry (reference value: 0.7 %). The class given is functional.
For experiment [17], the system named is U-937. Description: Induction of apoptosis in human U937 cells assessed as necrotic cells at 0.3 uM measured after 3 days by muse Annexin V/dead cell reagent staining-based flow cytometry (reference value: 2.5 %). The class given is functional.
Another experiment is filed under the species Homo sapiens. Description: Inhibition of ERK phosphorylation in human U937 cells at 0.3 uM measured after 1 to 3 hrs y Western blot analysis. The class given is cell-based.
Experiment [18] deals with U-937. Description: Induction of apoptosis in human U937 cells assessed as late apoptotic cells at 0.3 uM measured after 3 days by muse Annexin V/dead cell reagent staining-based flow cytometry (reference value: 1.75 %). The format is functional.

Consider `COc1ccc(/C=C/C(=O)c2ccn3cc(-c4ccccc4)ncc23)cc1`, for which, in the experiment on U-937 [1], the result was Active.
In general, IC50 refers to the concentration needed to halve the response being measured. In the case of `O=C(/C=C/c1cccnc1)c1ccn2cc(-c3ccccc3)ncc12`, the outcome with U-937 [1] was Active. Besides, the IC50 in the experiment with U-937 [2] was found to be 630 nM.
With `O=C(/C=C/c1ccccc1I)c1ccn2cc(-c3ccccc3)ncc12`, the outcome in the experiment on U-937 [1] was inactive.
Turning to `O=C(/C=C/c1ccccc1Cl)c1ccn2cc(-c3ccccc3)ncc12`, the result with U-937 [1] was inactive.
Consider `O=C(/C=C/c1ccccn1)c1ccn2cc(-c3ccccc3)ncc12`, for which, in the experiment on U-937 [1], the outcome was Active. The IC50 in the experiment on U-937 [2] is 880 nM.
Turning to `COc1ccc(/C=C/C(=O)c2ccn3cc(-c4ccccc4)ncc23)c(OC)c1`, the Activity was determined as 88.55% in the experiment with U-937 [3]; 5.1% in the experiment on U-937 [4]; 4.85% in the experiment with U-937 [6]; 5.95% in the experiment on U-937 [8]; 4.2% in the experiment with U-937 [11]; 8.4% in the experiment with U-937 [12]. Also, the Activity was found to be 83.15% in the experiment with U-937 [13]; 84.45% with U-937 [14]; 2.15% with U-937 [15]; 2.3% with U-937 [16]; 5.2% in the experiment with U-937 [17]; 5.7% in the experiment with U-937 [18]. The result in the experiment with U-937 [5] was Active. Besides, the IC50 was determined as 7440 nM with CCD-18Co and 180 nM in the experiment on U-937 [2]. Further, the inhibition result in experiment [7] and in experiment [10] was “Active” throughout. For the same compound, the inhibition entry (in [9]; in the experiment listed under Homo sapiens) was “inactive” throughout.
In the case of `O=C(/C=C/c1ccncc1)c1ccn2cc(-c3ccccc3)ncc12`, in the experiment with U-937 [1], the outcome was Active. For the same compound, in the experiment on U-937 [2], the IC50 was determined as 690 nM.
With `COc1cccc(/C=C/C(=O)c2ccn3cc(-c4ccccc4)ncc23)c1`, in the experiment with U-937 [1], the outcome was Active.
For `COc1ccc(OC)c(/C=C/C(=O)c2ccn3cc(-c4ccccc4)ncc23)c1`, the outcome with U-937 [1] was inactive.
`O=C(/C=C/c1ccccc1F)c1ccn2cc(-c3ccccc3)ncc12`: the outcome in the experiment with U-937 [1] was inactive.
For `COc1ccccc1/C=C/C(=O)c1ccn2cc(-c3ccccc3)ncc12`, in the experiment on U-937 [1], the outcome was Active. In addition, in the experiment with U-937 [2], the IC50 turned out to be 770 nM.
With `O=C(/C=C/c1ccccc1Br)c1ccn2cc(-c3ccccc3)ncc12`, the result in the experiment with U-937 [1] was inactive.
As for `Nc1ccn([C@@H]2O[C@H](CO)[C@@H](O)[C@@H]2O)c(=O)n1` [CYTARABINE], the Activity with U-937 [3] is 83.2%; with U-937 [4], 8.8%; in the experiment with U-937 [6], 5.55%; with U-937 [8], 8.7%; in the experiment on U-937 [11], 5.35%; with U-937 [12], 11.2%. Moreover, the Activity in the experiment on U-937 [13] was 69.7%; with U-937 [14], 79.05%; in the experiment with U-937 [15], 2.65%; in the experiment with U-937 [16], 4.2%; with U-937 [17], 11.05%; in the experiment on U-937 [18], 10.55%. The outcome in the experiment with U-937 [1] was Active. The IC50 in the experiment on U-937 [2] amounted to 2 nM.
